Values quoted from earlier work as cited in patent US20090117079A1, “METHODS AND MATERIALS FOR TREATING OR PREVENTING DISEASES/DISORDERS MEDIATED BY ALCOHOL DEHYDROGENASE” (priority 2007, published 2009).

System: alcohol dehydrogenase (ADH I)
Settings: competitive inhibition of ADH I in humans; affinity of ethanol relative to methanol

ethanol/methanol affinity ratio: 10/1
Structure (SMILES): CCO [ethanol]
